In the NIST ThermoML archive (doi:10.1021/je060271a):

Conditions: 283.14 K, Liquid, Vibrating tube method

CCCCCCC(=O)OCC(COC(=O)CCCCCC)(COC(=O)CCCCCC)COC(=O)CCCCCC [pentaerythritol tetraheptanoate]
Conditions | mass density [kg/m3]
5880.4 kPa | 989.3
5889.4 kPa | 989.2
5899.2 kPa | 989.3
5907.7 kPa | 989.3
5916.4 kPa | 989.3
5925.4 kPa | 989.4
5935.4 kPa | 989.3
5944.2 kPa | 989.2
5952.8 kPa | 989.3
5962.7 kPa | 989.3
5971.7 kPa | 989.2
5980.7 kPa | 989.3
5989.5 kPa | 989.3
6000.4 kPa | 989.2
6009 kPa | 989.3
6017.5 kPa | 989.3
6028.4 kPa | 989.4
6037.6 kPa | 989.3
6046.5 kPa | 989.3
6055.5 kPa | 989.5
6066.2 kPa | 989.3
6075.2 kPa | 989.4
6084.6 kPa | 989.5
6094.9 kPa | 989.3
6104.1 kPa | 989.3
6113.4 kPa | 989.5
6124.2 kPa | 989.4
6133.5 kPa | 989.4
6142.8 kPa | 989.4
6153.4 kPa | 989.4
6162.9 kPa | 989.4
6172.4 kPa | 989.4
6182.1 kPa | 989.4
6193.1 kPa | 989.4
6202.5 kPa | 989.4
6212.1 kPa | 989.4
6223.2 kPa | 989.5
6232.9 kPa | 989.5
6242.4 kPa | 989.5
6254.1 kPa | 989.4
6263.6 kPa | 989.5
6273.3 kPa | 989.5
6282.8 kPa | 989.6
6294.6 kPa | 989.5
6304.3 kPa | 989.6
6314.1 kPa | 989.6
6325.9 kPa | 989.5
6335.9 kPa | 989.5
6345.6 kPa | 989.6
6355.6 kPa | 989.5
6367.7 kPa | 989.5
6377.5 kPa | 989.6
6387.7 kPa | 989.6
6397.9 kPa | 989.6
6410 kPa | 989.6
6420.4 kPa | 989.6
6431 kPa | 989.5
6440.8 kPa | 989.5
6452.9 kPa | 989.6
6463.6 kPa | 989.5
6473.8 kPa | 989.6
6484 kPa | 989.6
6494.6 kPa | 989.6
6506.6 kPa | 989.6
6517 kPa | 989.6
6527.7 kPa | 989.6
6540.3 kPa | 989.7
6550.9 kPa | 989.5
6564.2 kPa | 989.7
6573.4 kPa | 989.7
6583.9 kPa | 989.7
6596.7 kPa | 989.7
6607.2 kPa | 989.6
6618.3 kPa | 989.7
6631.8 kPa | 989.7
6642.5 kPa | 989.7
6653 kPa | 989.7
6664.1 kPa | 989.7
6677.7 kPa | 989.8
6688.4 kPa | 989.7
6699.5 kPa | 989.7
6712.6 kPa | 989.7
6723.8 kPa | 989.8
6735.3 kPa | 989.8
6746.7 kPa | 989.9
6759.9 kPa | 989.7
6771.5 kPa | 989.7
6782.8 kPa | 989.8
6794.2 kPa | 989.8
6807.8 kPa | 989.8
6818.9 kPa | 989.8
6830.8 kPa | 989.8
6844.4 kPa | 989.8
6856.3 kPa | 989.7
6868.3 kPa | 989.8
6879.7 kPa | 989.9
6894 kPa | 989.9
6905.9 kPa | 989.9
6917.3 kPa | 989.9
6929.4 kPa | 989.9
6943.4 kPa | 989.9
6955.3 kPa | 989.9
6967.2 kPa | 989.9
6981.6 kPa | 989.8
6993.5 kPa | 989.9
7005.9 kPa | 989.9
7020.3 kPa | 989.8
7032.3 kPa | 990
7045.1 kPa | 990.1
7057.7 kPa | 989.8
7072.1 kPa | 989.9
7084.7 kPa | 990
7096.9 kPa | 989.9
7109.5 kPa | 990
7124.4 kPa | 989.9
7137 kPa | 990
7149.8 kPa | 990
7165.1 kPa | 990
7178.1 kPa | 989.9
7190.7 kPa | 990
7203.7 kPa | 990
7219 kPa | 990
7232.1 kPa | 990
7244.9 kPa | 990.1
7258.2 kPa | 990.1
7273.8 kPa | 990.1
7287 kPa | 990
7300 kPa | 990.1
7315.9 kPa | 990.1
7329.2 kPa | 990
7342.5 kPa | 990.1
7355.8 kPa | 990
7372.2 kPa | 990.3
7385.8 kPa | 990.1
7399.3 kPa | 990.1
7413.1 kPa | 990.1
7429.3 kPa | 990.2
7442.8 kPa | 990.2
7456.9 kPa | 990.2
7471.1 kPa | 990.2
7487.7 kPa | 990.1
7501.3 kPa | 990.2
7515.3 kPa | 990.1
7532 kPa | 990.3
7546.5 kPa | 990.1
7561.7 kPa | 990.1
7576.2 kPa | 990.3
7590.2 kPa | 990.3
7604.7 kPa | 990.2
7622 kPa | 990.3
7636.1 kPa | 990.3
7651 kPa | 990.3
7668.2 kPa | 990.3
7682.9 kPa | 990.2
7697.4 kPa | 990.3
7715.2 kPa | 990.2
7729.3 kPa | 990.4
7744.5 kPa | 990.4
7760.2 kPa | 990.3
7775.4 kPa | 990.4
7793 kPa | 990.3
7808 kPa | 990.4
7823 kPa | 990.2
7841 kPa | 990.4
7855.8 kPa | 990.3
7871.2 kPa | 990.4
7889.8 kPa | 990.4
7904.8 kPa | 990.4
7920.5 kPa | 990.5
7939.2 kPa | 990.4
7955 kPa | 990.5
7970.7 kPa | 990.4
7986.3 kPa | 990.4
8005.3 kPa | 990.5
8020.9 kPa | 990.5
8039.9 kPa | 990.5
8056 kPa | 990.4
8071.5 kPa | 990.5
8091.2 kPa | 990.5
8107.4 kPa | 990.5
8123.4 kPa | 990.4
8140 kPa | 990.5
8156.7 kPa | 990.5
8176.8 kPa | 990.5
8193.5 kPa | 990.4
8210.2 kPa | 990.6
8226.8 kPa | 990.5
8246.8 kPa | 990.6
8263.9 kPa | 990.5
8280.8 kPa | 990.7
8301 kPa | 990.6
8317.9 kPa | 990.5
8338.2 kPa | 990.6
8355.3 kPa | 990.5
8372.7 kPa | 990.6
8393.6 kPa | 990.6
8411 kPa | 990.6
8428.8 kPa | 990.6
8446.4 kPa | 990.8
8467.8 kPa | 990.7
8485.5 kPa | 990.7
8503.5 kPa | 990.8
8524.7 kPa | 990.8
8542.8 kPa | 990.8
8560.9 kPa | 990.8
8578.8 kPa | 990.9
8601.1 kPa | 990.7
8619.5 kPa | 990.8
8638.2 kPa | 990.8
8660.8 kPa | 990.7
8679.6 kPa | 990.8
8698 kPa | 990.8
8716.6 kPa | 990.8
8739.2 kPa | 990.7
8758 kPa | 990.9
8777.1 kPa | 991
8800.4 kPa | 990.8
8820.1 kPa | 990.9
8839.6 kPa | 990.9
8863 kPa | 990.9
8882.8 kPa | 990.9
8902.7 kPa | 991
8923.2 kPa | 990.9
